# Source: US20050202467A1, “Novel spliced 5-HT1A receptors and methods, kits, and uses relating thereto” (Philadelphia Health and Education Corporation (d/b/a MCP …, priority 2003, published 2005)
# Experiments:
# primary T cells = experiment: response of mitogen (PHA) stimulated T-cells to selective 5-HT1A inhibitors; assay type: cell-based; conditions: mitogen (PHA) stimulated T cell cultures, at the concentrations tested (FIG. 2)
# [1] = system: neoplastic B and T cell lines; experiment: inhibition of activation of neoplastic B and T cell lines; assay type: cell-based
# Description: Each of the tested compounds has a high affinity for the 5-HT1A receptor and was expected to inhibit the receptor's activity equally well.
Compound,inhibition of the activation of primary T cells (primary T cells),inhibition of the activation of neoplastic B and T cell lines [1]
COc1ccccc1N1CCN(CCN(C(=O)c2ccc(F)cc2)c2ccccn2)CC1 [p-MPPF],little or no effects,
COc1ccccc1N1CCN(CCCCN2C(=O)c3ccccc3C2=O)CC1 [NAN-190],reproducibly inhibited,reproducibly inhibited
WAY-100635,little or no effects,
